The source of these data is ChEMBL document CHEMBL1126918, “Analysis of two cycloplatinated compounds derived from N-(4-methoxyphenyl)-alpha-benzoylbenzylidenamine. Comparison of the activity of these compounds with other isostructural cyclopalladated compounds” (J Med Chem, 1993).

One assay relates to HL-60. Briefly: Tested for inhibition against leukemic HL-60 (human cancer) cell lines. It counts as functional, cell-based.
The subject of a further assay is MDA-MB-468. Description: Tested for inhibition against mammary cancer MDA-MB 468 (breast carcinoma) cell lines. It counts as functional, cell-based. As to conditions: Homo sapiens.

In the case of CISPLATIN, the ID50 amounted to 2300 nM with HL-60 and 3300 nM in the assay with MDA-MB-468.
